In one assay the target is T1, Cathepsin K (Homo sapiens, UniProt P43235).
T1 sequence (P43235 115-329): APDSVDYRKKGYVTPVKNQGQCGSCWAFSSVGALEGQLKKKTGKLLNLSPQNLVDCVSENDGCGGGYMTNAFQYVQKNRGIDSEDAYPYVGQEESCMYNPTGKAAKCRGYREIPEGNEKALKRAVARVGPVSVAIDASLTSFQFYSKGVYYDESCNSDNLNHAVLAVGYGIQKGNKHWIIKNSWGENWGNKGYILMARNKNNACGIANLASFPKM
Put plainly: Cathepsin K inhibition assay (fluorogenic peptide substrate); selectivity ratio vs cathepsin S. Format: biochemical. The note with it: for pKi: read-out: Ki (CatK). An outline of the steps:
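Fluorogenic kinetic assay, started with acetyl-Lys-His-Pro-Lys-aminocarbamoylcoumarin at 40 μM final, hydrolysis followed at ex 380/em 450 nm. Apparent inhibition constants from progress curves, converted to competitive inhibition constants. Selectivity expressed as isozyme inhibition constant divided by cathepsin S inhibition constant.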

The next assay concerns the target Cathepsin S (Homo sapiens, UniProt P25774). Put plainly: Cathepsin S inhibition assay (fluorogenic peptide substrate). Format: biochemical. The method in brief: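 Ki values come from nonlinear fitting of inhibited hydrolysis rates, taking free and total inhibitor concentrations as equal. Rates measured as rising fluorescence at 380/450 nm after reaction start with 50 μM final acetyl-HPVK-aminocarbamoylcoumarin.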

The mark [1] stands for this setting: ratio of cathepsin K inhibition constant to cathepsin S inhibition constant, Table II.
The mark [2] stands for this setting: Table II, compounds of Formula I, read-out: Ki Cat. S.
Setting [3] is: comparison compounds in the art, ratio Ki CatK / Ki CatS.
[4] abbreviates: comparison compounds in the art.
Where [5] appears, read: comparison compounds in the art, read-out: Ki (CatS).

Structures are written as SMILES. pKi: −log10 of the molar value. Where two headings read alike, the source gives them in different places. Bounds are passed on as bounds.

Cathepsin S, sequence (P25774 115-331, species assumed): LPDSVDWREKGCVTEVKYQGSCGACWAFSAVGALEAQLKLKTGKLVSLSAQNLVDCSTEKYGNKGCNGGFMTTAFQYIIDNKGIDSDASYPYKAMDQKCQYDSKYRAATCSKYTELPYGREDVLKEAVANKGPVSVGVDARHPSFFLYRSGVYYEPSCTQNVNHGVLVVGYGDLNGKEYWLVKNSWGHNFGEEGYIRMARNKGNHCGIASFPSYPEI

Turning to `N#Cc1cccc(C(=O)N[C@@H](CC2CCCCC2)C(=O)NCCNc2ccc(F)cc2)c1` [Compound 324, 3-Cyano-N-(S)-{2-cyclohexyl-1-[2-(4-fluoro-phenylamino)-ethylcarbamoyl]-ethyl}-benzamide], the “Selectivity for Cat. S over Cat. K” value at Cathepsin K (setting [1]) was “++ (++, >100)”. Further, the pKi at Cathepsin S (setting [2]) is more than 7.00.
As for `O=C(Cc1ccc(C(F)(F)F)cc1)N[C@@H](CC1CCCCC1)C(=O)NCCNc1ccc(F)cc1` [Compound 325, 3-Cyclohexyl-N-[2-(4-fluoro-phenylamino)-ethyl]-2-(S)-[2-(4-trifluoromethyl-phenyl)-acetylamino]-propionamide], the “Selectivity for Cat. S over Cat. K” value on Cathepsin K (setting [1]) is given as “++ (++, >100)”. Further, the negative logarithm of the Ki (pKi) on Cathepsin S (setting [2]) was more than 7.00.
As to `CS(=O)(=O)c1ccc(CC(=O)N[C@@H](CC2CCCCC2)C(=O)NCCNc2ccc(F)cc2)cc1` [Compound 326, 3-Cyclohexyl-N-[2-(4-fluoro-phenylamino)-ethyl]-2-(S)-[2-(4-methanesulfonyl-phenyl)-acetylamino]-propionamide], at Cathepsin K (setting [1]), the “Selectivity for Cat. S over Cat. K” value is reported as “++ (++, >100)”. In addition, the negative logarithm of the Ki (pKi) at Cathepsin S (setting [2]) was more than 6.00.
For the molecule `COc1ccc(NCCNC(=O)[C@H](Cc2ccc(Oc3ccccc3)cc2)NC(=O)c2cccc(C)c2)cc1` [Compound 327, (S)-N-[1-[2-(4-Methoxy-phenylamino)-ethylcarbamoyl]-2-(4-phenoxy-phenyl)-ethyl]-3-methyl-benzamide], on Cathepsin K (setting [1]), the “Selectivity for Cat. S over Cat. K” value is “++ (++, >100)”. On Cathepsin S (setting [2]), the negative logarithm of the Ki (pKi) was more than 6.00.
On to `COc1ccc(NCCNC(=O)[C@H](Cc2ccc(Oc3ccc(OC)cc3)cc2)NC(=O)c2cccc(C)c2)cc1` [Compound 328, (S)-N-{2-[4-(4-Methoxy-phenoxy)-phenyl]-1-[2-(4-methoxy-phenylamino)-ethylcarbamoyl]-ethyl}-3-methyl-benzamide], for which the “Selectivity for Cat. S over Cat. K” value at Cathepsin K (setting [1]) is on record as “++ (++, >100)”. Besides, the pKi on Cathepsin S (setting [2]) was more than 6.00.
Regarding `COc1ccc(NCCNC(=O)[C@H](Cc2ccc(Oc3cccc(Cl)c3)cc2)NC(=O)c2cccc(C)c2)cc1` [Compound 329, (S)-N-{2-[4-(3-Chloro-phenoxy)-phenyl]-1-[2-(4-methoxy-phenylamino)-ethylcarbamoyl]-ethyl}-3-methyl-benzamide], the “Selectivity for Cat. S over Cat. K” value on Cathepsin K (setting [1]) was “++ (++, >100)”. The pKi on Cathepsin S (setting [2]) was more than 6.00.
Take `COc1ccc(NCCNC(=O)[C@H](Cc2ccc(Oc3cc(C)cc(C)c3)cc2)NC(=O)c2cccc(C)c2)cc1` [Compound 330, (S)-N-{2-[4-(3,5-Dimethyl-phenoxy)-phenyl]-1-[2-(4-methoxy-phenylamino)-ethylcarbamoyl]-ethyl}-3-methyl-benzamide]: the “Selectivity for Cat. S over Cat. K” value at Cathepsin K (setting [1]) is “++ (++, >100)”. Further, the pKi at Cathepsin S (setting [2]) was more than 6.00.
As for `CC(C)C[C@H](NC(=O)OCc1ccccc1)C(=O)NCCNc1cccc2ccccc12` [reference compound], the “Selectivity for Cat. S over Cat. K” value at Cathepsin K (setting [3]) is given as less than 10. In addition, the values for the negative-log Ki (pKi) at Cathepsin K (setting [4]) and at Cathepsin S (setting [5]) were more than 7.00 and more than 6.00, respectively.
On to `COc1ccc(NCCNC(=O)[C@@H](CC(C)C)NC(=O)c2ccc(-c3ccccc3)cc2)cc1` [reference compound], for which, on Cathepsin K (setting [3]), the “Selectivity for Cat. S over Cat. K” value is less than 10. Moreover, the pKi on Cathepsin K (setting [4]) and at Cathepsin S (setting [5]) was more than 7.00 in each case.
